From PubChem BioAssay (NCI)
“And” between values parts separate entries of the source, which are not always exact repeats. Equal entries are not always repeated.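 Test compounds were applied to cells in 96-well plates for 48 hours at 5 doses. GI50 is the concentration that inhibits growth by half. TGI denotes the concentration required for complete inhibition of growth.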

Assays:
Test in all cases: growth of human tumour cells (NCI), 48 h
CCRF-CEM leukemia = tested on: CCRF-CEM leukemia
HOP-92 NSCLC = tested on: HOP-92 NSCLC
HS 578T breast = tested on: HS 578T breast
IGROV1 ovarian = tested on: IGROV1 ovarian
MALME-3M melanoma = tested on: MALME-3M melanoma
NCI-H522 lung = tested on: NCI-H522 lung
OVCAR-3 ovarian = tested on: OVCAR-3 ovarian
SW-620 colon = tested on: SW-620 colon
TK-10 renal = tested on: TK-10 renal
UACC-62 melanoma = tested on: UACC-62 melanoma

Compound	GI50 (CCRF-CEM leukemia)	TGI (CCRF-CEM leukemia)	GI50 (HOP-92 NSCLC)	TGI (HOP-92 NSCLC)	GI50 (HS 578T breast)	TGI (HS 578T breast)	GI50 (IGROV1 ovarian)	TGI (IGROV1 ovarian)	GI50 (MALME-3M melanoma)	TGI (MALME-3M melanoma)	GI50 (NCI-H522 lung)	TGI (NCI-H522 lung)	GI50 (OVCAR-3 ovarian)	TGI (OVCAR-3 ovarian)	GI50 (SW-620 colon)	TGI (SW-620 colon)	GI50 (TK-10 renal)	TGI (TK-10 renal)	GI50 (UACC-62 melanoma)	TGI (UACC-62 melanoma)
CN1CCN(CCCn2c3c(sc4ncccc43)c(=O)n3nnc(-c4ccccc4)c23)CC1	1.57 µM	4.08 µM	9.5 µM	28.4 µM	4.82 µM	12.3 µM	1.69 µM	4.22 µM	6.38 µM	11.8 µM	1.6 µM	3.3 µM	1.81 µM	3.42 µM	1.52 µM	3.25 µM	3.15 µM	10.7 µM	17.6 µM	33.8 µM
C=C1[C@H](O)C[C@@H](C(C)C(O)CC=C(C)C)[C@@H](O)[C@@H]2C(C)=CC[C@@H]12 (stereo partly specified)	55.6 µM	> 100 µM	> 100 µM	> 100 µM	> 100 µM	> 100 µM	> 100 µM	> 100 µM	> 100 µM	> 100 µM	30.3 µM	86.4 µM	–	–	> 100 µM	> 100 µM	> 100 µM	> 100 µM	94.8 µM	> 100 µM
Cc1cccc(Nc2ncc(-c3ccccc3)o2)c1	> 25 µM	> 25 µM	> 25 µM	> 25 µM	> 7 µM	> 25 µM	> 25 µM	> 25 µM	> 25 µM	> 25 µM	> 25 µM	> 25 µM	> 25 µM	> 25 µM	> 25 µM	> 25 µM	> 25 µM	> 25 µM	> 25 µM	> 25 µM
C#Cc1cccc(NC(=O)C2CCCCN2C(=O)CCl)c1 (stereo unspecified)	3.99 µM	50.1 µM	12.5 µM	43.3 µM	18.4 µM	76.4 µM	9.72 µM	27.1 µM	9.93 µM	22.4 µM	8.72 µM	24.4 µM	10.1 µM	22.2 µM	12.1 µM	31.5 µM	15.6 µM	33.6 µM	18.9 µM	> 82.5 µM
CNC(=O)c1cc(Oc2ccc(NC(=O)Nc3ccc(Cl)c(C(F)(F)F)c3)cc2)ccn1	3.18 µM and 4.35 µM and 2.27 µM	> 10 µM and > 100 µM and 16.7 µM	1.65 µM and 1.43 µM and 1.75 µM	5.62 µM and 5.12 µM and 6.38 µM	2.96 µM and 2.33 µM and 2.59 µM	> 10 µM and 8.47 µM and 16.4 µM	3.52 µM and 3.44 µM and 2.6 µM	> 10 µM and 15.3 µM and 9.14 µM	2.9 µM and 2.08 µM and 2.15 µM	> 10 µM and 6.71 µM and 11 µM	1.79 µM and 2.14 µM and 2.06 µM	5.79 µM and 5.64 µM and 6.29 µM	–	–	4.26 µM and 3.05 µM and 2.87 µM	> 10 µM and 12 µM and 9.35 µM	4.41 µM and 3.83 µM and 4.48 µM	> 10 µM and 9.96 µM and 20.2 µM	2.4 µM and 1.96 µM and 1.7 µM	8.52 µM and 5.23 µM and 4.49 µM
COc1cc(-c2cc(-c3ccc(Nc4nc(Nc5ccc(Cl)cc5)nc(Nc5ccc(Cl)cc5)n4)cc3)no2)cc(OC)c1OC	2.16 µM	11.9 µM	0.0166 µM	0.32 µM	1.71 µM	> 100 µM	3.22 µM	> 100 µM	50.3 µM	> 100 µM	2.89 µM	> 100 µM	6.68 µM	88.9 µM	19.9 µM	> 100 µM	25.4 µM	> 100 µM	71.7 µM	> 100 µM
C=C1CC2(CC(c3ccccc3C)OC(c3ccccc3C)C2)OC1=O (stereo unspecified)	–	5.75 µM	–	3.18 µM	–	5.43 µM	–	3.25 µM	–	3.29 µM	–	3.23 µM	–	3.58 µM	–	3.59 µM	–	4.14 µM	–	3.23 µM
Nc1nc(N)c2c(n1)NC(c1ccc(Cl)cc1)C1CCc3ccccc3C1=N2 (stereo unspecified)	–	–	2.26 µM	9.83 µM	15 µM	50.3 µM	6.16 µM	20.4 µM	8.48 µM	22.8 µM	5.21 µM	20.9 µM	6.46 µM	19 µM	8.23 µM	22.6 µM	8.2 µM	23.2 µM	3.66 µM	18.3 µM
COc1cccc(/C=C/C(=O)c2cc3c(N)c(C(=O)Nc4ccccc4)sc3nc2C)c1	–	–	1.08 µM	4.24 µM	1.92 µM	> 50 µM	0.954 µM	2 µM	2.03 µM	15 µM	1.06 µM	3.08 µM	1.18 µM	3.32 µM	1.12 µM	3.09 µM	1.56 µM	5.47 µM	0.943 µM	2.19 µM
O=C(Nc1ccn(C2CCC(COC(c3ccccc3)(c3ccccc3)c3ccccc3)O2)c(=O)n1)c1ccccc1 (stereo unspecified)	–	9.04 µM	–	4.74 µM	–	9.05 µM	–	13.4 µM	–	9.91 µM	–	19.2 µM	–	6.47 µM	–	15.2 µM	–	–	–	16.7 µM
COC(=O)C1(N2CCOCC2)CCC([C@@H](c2ccccc2)C(C)[N+](=O)[O-])C1 (stereo partly specified)	–	20.3 µM	–	–	–	> 100 µM	–	–	–	> 100 µM	–	–	–	71.3 µM	–	> 100 µM	–	> 100 µM	–	> 100 µM
CC#CC#C/C=C1/C=CC2(CCCCO2)O1 (stereo unspecified)	–	53.9 µM	–	> 100 µM	–	> 100 µM	–	> 100 µM	–	> 100 µM	–	> 100 µM	–	–	–	> 100 µM	–	> 100 µM	–	> 100 µM
Clc1ccc(Nc2nnc(COc3ccccc3)c3ccccc23)cc1	2.8 µM	14.2 µM	0.331 µM	3.09 µM	2.58 µM	10.5 µM	1.14 µM	6.37 µM	1.38 µM	7.3 µM	0.354 µM	4.04 µM	2.87 µM	9.8 µM	2.86 µM	7.79 µM	–	–	1.24 µM	5.69 µM
COc1cc(/C=C/[N+](=O)[O-])cc(OC)c1	2.02 µM	6.32 µM	4.78 µM	20.5 µM	4.11 µM	23.3 µM	2.83 µM	8.63 µM	3.29 µM	10.4 µM	1.39 µM	3.14 µM	1.56 µM	3.07 µM	1.68 µM	3.65 µM	–	–	2.42 µM	7.34 µM
O=C(Nc1c(Cl)cccc1Cl)Oc1cccc2cccnc12	2.29 µM	23.2 µM	–	–	10.9 µM	66.1 µM	3.68 µM	> 100 µM	6.19 µM	81 µM	3.71 µM	20.3 µM	3.64 µM	> 100 µM	4.23 µM	> 100 µM	8.98 µM	> 100 µM	3.04 µM	10 µM
